In the test the target is glucocorticoid receptor (Homo sapiens (Human), UniProt P04150). Kind of test: HepG2 TAT assay: inhibition of dexamethasone-induced tyrosine aminotransferase (TAT) activity. The conditions noted are these: HepG2 cells, challenge of 100 nM dexamethasone, 18-24 hr; IC50 converted to Ki by Cheng and Prusoff equation. It is filed as cell-based. As for the experimental part:
Glucocorticoid mediated activation of TAT occurs by transactivation of glucocorticoid response elements in the TAT promoter by glucocorticoid receptor-agonist complex.
HepG2 cells were cultured using MEME media supplemented with 10% (v/v) foetal bovine serum; 2 mM L-glutamine and 1% (v/v) NEAA at 37° C., 5%/95% (v/v) CO2/air.
Compounds were serially half log diluted in 100% (v/v) dimethylsulphoxide from a 10 mM stock.
HepG2 cells were then lysed with 30 μl of cell lysis buffer containing a protease inhibitor cocktail for 15 minutes at 4° C. […] After 2 hours incubation at 37° C. the reaction was terminated by the addition of 15 μl of 10M aqueous potassium hydroxide solution, and the plates incubated for a further 30 minutes at 37° C.
[compound] and fitting the data to a 4 parameter logistic equation.

Chain of glucocorticoid receptor (P04150 whole entry): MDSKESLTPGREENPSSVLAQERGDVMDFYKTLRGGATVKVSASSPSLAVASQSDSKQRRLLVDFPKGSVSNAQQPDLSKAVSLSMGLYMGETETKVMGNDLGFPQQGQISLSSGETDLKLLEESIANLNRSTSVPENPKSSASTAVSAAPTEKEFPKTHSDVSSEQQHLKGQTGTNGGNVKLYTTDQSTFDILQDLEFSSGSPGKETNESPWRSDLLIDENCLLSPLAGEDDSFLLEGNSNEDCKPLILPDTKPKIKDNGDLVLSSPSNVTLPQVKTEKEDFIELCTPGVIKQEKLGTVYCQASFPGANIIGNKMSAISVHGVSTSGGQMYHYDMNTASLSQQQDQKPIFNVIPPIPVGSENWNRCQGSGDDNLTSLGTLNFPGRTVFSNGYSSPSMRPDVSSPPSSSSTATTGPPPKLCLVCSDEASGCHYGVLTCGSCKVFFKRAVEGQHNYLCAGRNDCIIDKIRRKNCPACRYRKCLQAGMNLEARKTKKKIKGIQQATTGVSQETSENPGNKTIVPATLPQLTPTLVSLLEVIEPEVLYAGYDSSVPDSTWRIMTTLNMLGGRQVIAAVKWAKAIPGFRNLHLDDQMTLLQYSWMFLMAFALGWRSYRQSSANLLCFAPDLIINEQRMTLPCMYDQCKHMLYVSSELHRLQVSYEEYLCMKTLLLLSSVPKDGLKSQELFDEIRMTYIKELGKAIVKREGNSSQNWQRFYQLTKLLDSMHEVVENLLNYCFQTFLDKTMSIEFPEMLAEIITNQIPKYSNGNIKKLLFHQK

Broadly, the Ki is a dissociation constant, usually derived from enzyme kinetics or from competition with a known ligand. Higher therefore signals weaker binding. The compound `Cc1cc2c(cnn2-c2ccc(F)cc2)cc1[C@@]12CN(C(=O)C3CCOCC3)C[C@@H]1[C@H]2c1ccccc1` (stereo in doubt) [Example 160, (1-(1-(4-fluorophenyl)-6-methyl-1H-indazol-5-yl)-6-phenyl-3-azabicyclo[3.1.0]hexan-3-yl)(tetrahydro-2H-pyran-4-yl)methanone] displayed a Ki of 70 nM.

Take `COc1ccnc(C(=O)N2C[C@@H]3[C@@H](c4ccccc4)[C@]3(c3cc4cnn(-c5ccc(F)cc5)c4cc3C)C2)c1` (stereo in doubt) [Example 169, (1-(1-(4-fluorophenyl)-6-methyl-1H-indazol-5-yl)-6-phenyl-3-azabicyclo[3.1.0]hexan-3-yl)(4-methoxypyridin-2-yl)methanone]: the Ki was 35 nM.

On to `Cc1cc2c(cnn2-c2ccc(F)cc2)cc1[C@@]12CN(S(=O)(=O)c3cnn(C)n3)C[C@@H]1[C@@H]2CO` (stereo in doubt) [Example 48, (1-(1-(4-fluorophenyl)-6-methyl-1H-indazol-5-yl)-3-((2-methyl-2H-1,2,3-triazol-4-yl)sulfonyl)-3-azabicyclo[3.1.0]hexan-6-yl) methanol], for which the Ki was determined as 570 nM.

Take `Cc1cc2c(cnn2-c2ccc(F)cc2)cc1C12CN(S(=O)(=O)c3cnn(C)c3)CC1CC(F)(c1ccccc1)C2` (stereo not drawn) [Example 4, 5-(5-fluoro-2-((1-methyl-1H-pyrazol-4-yl)sulfonyl)-5-phenylhexahydrocyclopenta[c]pyrrol-3a(1H)-yl)-1-(4-fluorophenyl)-6-methyl-1H-indazole]: the Ki came out at 540 nM.

In the case of `CCn1ncc(S(=O)(=O)N2CC3CC(OC)(c4ccccc4)CC3(c3cc4cnn(-c5ccc(F)cc5)c4cc3C)C2)n1` (stereo not drawn) [Example 26], the Ki was 53 nM.

The compound `Cc1cc2c(cnn2-c2ccc(F)cc2)cc1[C@]12CN(S(=O)(=O)c3cnn(C)n3)C[C@H]1[C@@H]2c1ccccc1` [Example 72] returned a Ki of 160 nM.

The compound `Cc1cc2c(cnn2-c2ccc(F)cc2)cc1[C@@]12CN(C(=O)N3CCOCC3)C[C@@H]1[C@H]2c1ccccc1` (stereo in doubt) [Example 121, (1-(1-(4-fluorophenyl)-6-methyl-1H-indazol-5-yl)-6-phenyl-3-azabicyclo[3.1.0]hexan-3-yl)(morpholino)methanone] gave a Ki of 49 nM.

`Cc1cc2c(cnn2-c2ccc(F)cc2)cc1[C@@]12CN(C(=O)c3ccccc3)C[C@@H]1[C@H]2c1ccccc1` (stereo in doubt) [Example 110, (1-(1-(4-fluorophenyl)-6-methyl-1H-indazol-5-yl)-6-phenyl-3-azabicyclo[3.1.0]hexan-3-yl)(phenyl)methanone] gave a Ki of 23 nM.

The compound `Cc1csc(C(=O)N2C[C@@H]3[C@@H](c4ccccc4)[C@]3(c3cc4cnn(-c5ccc(F)cc5)c4cc3C)C2)n1` (stereo in doubt) [Example 175, (1-(1-(4-fluorophenyl)-6-methyl-1H-indazol-5-yl)-6-phenyl-3-azabicyclo[3.1.0]hexan-3-yl)(4-methylthiazol-2-yl)methanone] yielded a Ki of 13 nM. Compared with the last compound, the Ki is about 1.8-fold lower.

Compound `Cc1cc2c(cnn2-c2ccc(F)cc2)cc1[C@@]12CN(C(=O)c3cccc(N4CCOCC4)c3)C[C@@H]1[C@H]2c1ccccc1` (stereo in doubt) [Example 142, (1-(1-(4-fluorophenyl)-6-methyl-1H-indazol-5-yl)-6-phenyl-3-azabicyclo[3.1.0]hexan-3-yl)(3-morpholinophenyl)methanone] yielded a Ki of 15 nM. This Ki and that of the compound before are within 1.5-fold of each other.

For `Cc1cc2c(cnn2-c2ccc(F)cc2)cc1C12CN(S(=O)(=O)c3cnn(C)n3)CC1C2COc1ccc(Cl)cc1` (single isomer, unassigned) [Example 53, 5-(6-((4-chlorophenoxy)methyl)-3-((2-methyl-2H-1,2,3-triazol-4-yl)sulfonyl)-3-azabicyclo[3.1.0]hexan-1-yl)-1-(4-fluorophenyl)-6-methyl-1H-indazole], the Ki amounted to 110 nM.

`Cc1cc2c(cnn2-c2ccc(F)cc2)cc1[C@@]12CN(C(=O)c3ccccc3N3CCOCC3)C[C@@H]1[C@H]2c1ccccc1` (stereo in doubt) [Example 174, (1-(1-(4-fluorophenyl)-6-methyl-1H-indazol-5-yl)-6-phenyl-3-azabicyclo[3.1.0]hexan-3-yl)(2-morpholinophenyl)methanone] came in with a Ki of 39 nM.

In turn, `Cc1cc2c(cnn2-c2ccc(F)cc2)cc1[C@@]12CN(C(=O)c3ccccc3C#N)C[C@@H]1[C@H]2c1ccccc1` (single isomer, unassigned) [Example 130, 2-(1-(1-(4-fluorophenyl)-6-methyl-1H-indazol-5-yl)-6-phenyl-3-azabicyclo[3.1.0]hexane-3-carbonyl)benzonitrile] gave a Ki of 5.7 nM.

The compound `Cc1cc2c(cnn2-c2ccc(F)cc2)cc1[C@@]12CN(c3ncccn3)C[C@@H]1[C@H]2c1ccccc1` (stereo in doubt) [Example 185, 1-(4-fluorophenyl)-6-methyl-5-(6-phenyl-3-(pyrimidin-2-yl)-3-azabicyclo[3.1.0]hexan-1-yl)-1H-indazole] gave a Ki of 100 nM.

The compound `Cc1cc2c(cnn2-c2ccc(F)cc2)cc1[C@]12CN(C(=O)c3cn(C)nn3)C[C@H]1[C@@H]2c1ccccc1` [Example 147, (1-(1-(4-fluorophenyl)-6-methyl-1H-indazol-5-yl)-6-phenyl-3-azabicyclo[3.1.0]hexan-3-yl)(1-methyl-1H-l,2,3-triazol-4-yl)methanone] showed a Ki of 37 nM.

For the compound `Cc1cc2c(cnn2-c2ccc(F)cc2)cc1[C@@]12CN(C(=O)N3CCCC3)C[C@@H]1[C@H]2c1ccccc1` (single isomer, unassigned) [Example 126, (1-(1-(4-fluorophenyl)-6-methyl-1H-indazol-5-yl)-6-phenyl-3-azabicyclo[3.1.0]hexan-3-yl)(pyrrolidin-1-yl)methanone], the Ki worked out at 34 nM.

In turn, `Cc1cc2c(cnn2-c2ccc(F)cc2)cc1C12CC(OCc3ccccc3)CC1CN(C(=O)OC(C)(C)C)C2` (stereo not drawn) [Example 35, tert-butyl 5-(benzyloxy)-3a-(1-(4-fluorophenyl)-6-methyl-1H-indazol-5-yl)hexahydrocyclopenta[c]pyrrole-2(1H)-carboxylate] registered a Ki of 160 nM.

Turning to `COC1(c2ccccc2)CC2CN(S(=O)(=O)C3(C)CC3)CC2(c2cc3cnn(-c4ccc(F)cc4)c3cc2C)C1` (stereo not drawn) [Example 28], the Ki is 32 nM.

In the case of `Cc1cc2c(cnn2-c2ccc(F)cc2)cc1[C@@]12CN(C(=O)c3ncccc3C#N)C[C@@H]1[C@H]2c1ccccc1` (single isomer, unassigned) [Example 155, 2-(1-(1-(4-fluorophenyl)-6-methyl-1H-indazol-5-yl)-6-phenyl-3-azabicyclo[3.1.0]hexane-3-carbonyl)nicotinonitrile], the Ki came out at 19 nM.

With `Cc1cc2c(cnn2-c2ccc(F)cc2)cc1[C@@]12CN(C(=O)c3cccc(C(F)(F)F)n3)C[C@@H]1[C@H]2c1ccccc1` (stereo in doubt) [Example 145, (1-(1-(4-fluorophenyl)-6-methyl-1H-indazol-5-yl)-6-phenyl-3-azabicyclo[3.1.0]hexan-3-yl)(6-(trifluoromethyl)pyridin-2-yl)methanone], the Ki came out at 48 nM.

Compound `Cc1cc2c(cnn2-c2ccc(F)cc2)cc1C12CN(S(=O)(=O)c3cnn(C)c3)CC1CC(O)(c1ccccc1)C2` (stereo not drawn) [Example 10, 3a-(1-(4-fluorophenyl)-6-methyl-1H-indazol-5-yl)-2-((1-methyl-1H-pyrazol-4-yl)sulfonyl)-5-phenyloctahydrocyclopenta[c]pyrrol-5-ol] displayed a Ki of 220 nM.

`Cc1cc2c(cnn2-c2ccc(F)cc2)cc1[C@@]12CN(C(=O)c3ncccc3C(F)(F)F)C[C@@H]1[C@H]2c1ccccc1` (single isomer, unassigned) [Example 148, (1-(1-(4-fluorophenyl)-6-methyl-1H-indazol-5-yl)-6-phenyl-3-azabicyclo[3.1.0]hexan-3-yl)(3-(trifluoromethyl)pyridin-2-yl)methanone] had a Ki of 9.2 nM.

Consider `Cc1cc2c(cnn2-c2ccc(F)cc2)cc1[C@@]12CN(S(=O)(=O)c3cnn(C)n3)C[C@@H]1[C@H]2C(=O)NC1CCCC1` [Example 61], for which the affinity corresponds to a Ki of 200 nM. This Ki is about 22-fold higher than that of the compound before.

As to `CNS(=O)(=O)N1C[C@@H]2[C@@H](c3ccccc3)[C@]2(c2cc3cnn(-c4ccc(F)cc4)c3cc2C)C1` [Example 106], the Ki came out at 55 nM.

`Cc1cc2c(cnn2-c2ccc(F)cc2)cc1C12CN(S(=O)(=O)c3cnn(C)n3)CC1C2CO` (stereo not drawn) [Example 47, (1-(1-(4-fluorophenyl)-6-methyl-1H-indazol-5-yl)-3-((2-methyl-2H-1,2,3-triazol-4-yl)sulfonyl)-3-azabicyclo[3.1.0]hexan-6-yl)methanol] gave a Ki of 270 nM.

Compound `COCC(=O)N1C[C@@H]2[C@@H](c3ccccc3)[C@]2(c2cc3cnn(-c4ccc(F)cc4)c3cc2C)C1` (single isomer, unassigned) [Example 119, 1-(1-(1-(4-fluorophenyl)-6-methyl-1H-indazol-5-yl)-6-phenyl-3-azabicyclo[3.1.0]hexan-3-yl)-2-methoxyethan-1-one] came in with a Ki of 48 nM.

`Cc1cc2c(cnn2-c2ccc(F)cc2)cc1[C@@]12CN(S(=O)(=O)c3ccccc3)C[C@@H]1[C@H]2c1ccccc1` [Example 89] showed a Ki of 17 nM.

For the compound `Cc1cc2c(cnn2-c2ccc(F)cc2)cc1[C@]12CN(S(=O)(=O)C3CCOCC3)C[C@H]1[C@@H]2c1ccccc1` [Example 88], affinity was put at a Ki of 47 nM. This Ki is about 2.8-fold higher than that of the compound before.

`Cc1cc2c(cnn2-c2ccc(F)cc2)cc1[C@@]12CN(S(=O)(=O)c3cnn(C)n3)C[C@@H]1[C@H]2c1ccccc1` [Example 70] came in with a Ki of 24 nM.

`Cc1cc2c(cnn2-c2ccc(F)cc2)cc1[C@]12CN(S(=O)(=O)c3cncc(F)c3)C[C@H]1[C@@H]2c1ccccc1` [Example 78] returned a Ki of 25 nM.

Values taken from patent US20250115583A1, “BICYCLIC INDAZOLE GLUCOCORTICOID RECEPTOR ANTAGONISTS” (Corcept Therapeutics Incorporated, priority 2021, published 2025).
